This is an account of results in paper PMC9311798, “A Novel Class of Potent Anti-Tyrosinase Compounds with Antioxidant Activity, 2-(Substituted phenyl)-5-(trifluoromethyl)benzo[d]thiazoles: In Vitro and In Silico Insights” (Antioxidants, 2022).

In one series the target is T1, mushroom tyrosinase (Agaricus bisporus, UniProt C7FF04).
T1 construct: purchased Sigma-Aldrich
The experiment in a line: Mushroom tyrosinase inhibition assay. The settings on record: L-tyrosine as substrate. Type of series: biochemical. Here is the method: Mushroom tyrosinase inhibitory activity was determined as described previously, with minor modifications. L-Tyrosine was used as a substrate to determine enzyme activities. […] These dose-dependent inhibition experiments were carried out three times using three to five different concentrations of test compounds to determine IC50 values. Log–linear curves and their equations were derived from the observed percentages of inhibition.

A short description of series [1]: ABTS radical scavenging activity assay. The settings on record: 100 µM, 2 min in the dark; for ABTS free radical scavenged (%): 734 nm. Here is the method:
At 734 nm, optical densities of the solutions were measured using a microplate reader (VersaMax^TM, Molecular Devices, Sunnyvale, CA, USA). The ABTS radical scavenging capacities of the 16 2-arylbenzothiazole derivatives were compared with trolox. All experiments were performed independently in triplicate.

Series [2] in a line: DPPH radical scavenging activity assay. The settings on record: compound 1.0 mM, 30 min in the dark, 517 nm. How it is done:
The DPPH (2,2-diphenyl-1-picrylhydrazyl) scavenging activities of synthesized compounds 1a–1p were investigated as previously described, with minor modifications. A dimethyl sulfoxide solution (20 µL) containing 10 mM of each compound was mixed with DPPH methanol solution (0.2 mM, 180 µL) in the wells of a 96-well plate, and placed in the dark for 30 min at room temperature. At 517 nm, optical densities were measured using a microplate reader (VersaMax^TM, Molecular Devices, Sunnyvale, CA, USA). The DPPH radical scavenging ability of the 2-arylbenzothiazole derivatives was compared with that of L-ascorbic acid, the positive control. All experiments were performed independently in triplicate.
On the technique in general: The DPPH test is a chemical assay of radical scavenging.

In series [3] the test system is intracellular ROS in B16F10 cells. The experiment in a line: Intracellular ROS scavenging (DCFH-DA assay, SIN-1 induced). Type of series: cell-based, murine. The settings on record: 20 µM, SIN-1 10 µM, trolox 20 µM positive control. Here is the method: Intracellular ROS scavenging evaluation was performed as reported by Ali et al. and Lebel and Bondy. ROS generation was assessed using the ROS-sensitive fluorescence indicator DCFH-DA. Briefly, B16F10 cells were seeded in 96-well black plates (1 × 10^4 cell/well), incubated for 24 h, treated with compounds 1a–1p (20 µM in DMSO) for 2 h, stimulated with 10 µL of SIN-1 (100 µM in 50 mM sodium phosphate buffer, pH 7.4) for 1 h to induce ROS production, and then incubated with DCFH-DA (20 µM) for 30 min at 37 °C. Fluorescence was measured for 30 min at 5 min intervals at an excitation wavelength of 485 nm and emission wavelength of 535 nm, using a Berthold microplate reader (Berthold Technologies GmbH &Co., Wien, Austria).

T1 sequence (C7FF04 1-392 limits assumed): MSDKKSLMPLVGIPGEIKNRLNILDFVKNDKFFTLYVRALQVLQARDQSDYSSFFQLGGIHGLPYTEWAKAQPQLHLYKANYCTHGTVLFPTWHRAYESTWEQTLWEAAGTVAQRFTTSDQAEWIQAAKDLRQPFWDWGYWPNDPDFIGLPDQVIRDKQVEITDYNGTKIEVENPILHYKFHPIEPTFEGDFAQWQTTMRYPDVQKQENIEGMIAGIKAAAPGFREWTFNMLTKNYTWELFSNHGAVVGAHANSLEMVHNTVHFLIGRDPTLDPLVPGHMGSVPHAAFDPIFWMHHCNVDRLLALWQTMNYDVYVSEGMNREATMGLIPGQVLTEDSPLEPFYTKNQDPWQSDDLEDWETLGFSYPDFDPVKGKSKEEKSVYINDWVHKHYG

Usually melting point stands for the temperature of the solid-liquid transition. One may read the IC50 as the concentration at which inhibition is half-maximal. A higher IC50 goes with a need for much substance. The compound `COc1cc(-c2nc3cc(C(F)(F)F)ccc3s2)cc(OC)c1OC` [Compound 1k, 5-(Trifluoromethyl)-2-(3,4,5-trimethoxyphenyl)benzo[d]thiazole] displayed a melting point of 132.5 to 134 °C. Further, on mushroom tyrosinase, the IC50 is > 300 µM.
In turn, `Oc1cc(O)cc(-c2nc3cc(C(F)(F)F)ccc3s2)c1` [Compound 1n, 5-(5-(Trifluoromethyl)benzo[d]thiazol-2-yl)benzene-1,3-diol] showed a melting point of 256.7 to 260.6 °C. Besides, the “ABTS radical scavenging activity (in words)” value in series [1] was “potently scavenged the ABTS radical”. In addition, in series [2], the “DPPH radical scavenging activity” value is reported as “moderate DPPH radical scavenging efficacy”. Besides, the “intracellular ROS scavenging” value in series [3] is recorded as “scavenged intracellular ROS to a similar extent to trolox”. Besides, it took 217 ± 32.7 µM to reach half-maximal inhibition against mushroom tyrosinase (IC50).
With `Oc1ccc(-c2nc3cc(C(F)(F)F)ccc3s2)cc1Br` [Compound 1p, 2-Bromo-4-(5-(trifluoromethyl)benzo[d]thiazol-2-yl)phenol], the “intracellular ROS scavenging” value in series [3] is listed as “scavenged intracellular ROS to a similar extent to trolox”. The compound also returned an IC50 at mushroom tyrosinase of 102 ± 12.4 µM.
`COc1cc(-c2nc3cc(C(F)(F)F)ccc3s2)ccc1O` [Compound 1d, 2-Methoxy-4-(5-(trifluoromethyl)benzo[d]thiazol-2-yl)phenol] registered a melting point of 155.7 to 159.9 °C. In addition, the “DPPH radical scavenging activity” value in series [2] is “moderate DPPH radical scavenging efficacy”. The compound also gave an IC50 at mushroom tyrosinase of 291 ± 63.8 µM.
On to `CCOc1cc(-c2nc3cc(C(F)(F)F)ccc3s2)ccc1O` [Compound 1e, 2-Ethoxy-4-(5-(trifluoromethyl)benzo[d]thiazol-2-yl)phenol], for which the melting point fell in the range of 117 to 117.8 °C. Moreover, the IC50 on mushroom tyrosinase was > 300 µM.
Take `Cc1c(C)c2c(c(C)c1O)CCC(C)(C(=O)O)O2` (stereo not drawn) [trolox, 6-hydroxy-2,5,7,8-tetramethylchroman-2-carboxylic acid, reference compound]: the “ABTS free radical scavenged (%)” value in series [1] is recorded as 98.9%.
`COc1ccc(-c2nc3cc(C(F)(F)F)ccc3s2)cc1O` [Compound 1f, 2-Methoxy-5-(5-(trifluoromethyl)benzo[d]thiazol-2-yl)phenol]: the melting point lay in the range of 142.1 to 144.5 °C. Further, the “DPPH radical scavenging activity” value in series [2] was “moderate DPPH radical scavenging efficacy”. Moreover, the IC50 on mushroom tyrosinase was > 300 µM.
Consider `COc1ccc(-c2nc3cc(C(F)(F)F)ccc3s2)cc1OC` [Compound 1j, 2-(3,4-Dimethoxyphenyl)-5-(trifluoromethyl)benzo[d]thiazole], for which the melting point lay within 120.4 to 121.6 °C. Moreover, the IC50 against mushroom tyrosinase amounted to 264 ± 56.6 µM.
For `COc1ccc(-c2nc3cc(C(F)(F)F)ccc3s2)c(OC)c1` [Compound 1i, 2-(2,4-Dimethoxyphenyl)-5-(trifluoromethyl)benzo[d]thiazole], in that order: 140.4 to 141.6 °C and > 300 µM.
For `COc1ccc(-c2nc3cc(C(F)(F)F)ccc3s2)cc1` [Compound 1h, 2-(4-Methoxyphenyl)-5-(trifluoromethyl)benzo[d]thiazole], in that order: 128.8 to 130.1 °C and > 300 µM.
As to `Oc1ccccc1-c1nc2cc(C(F)(F)F)ccc2s1` [Compound 1g, 2-(5-(Trifluoromethyl)benzo[d]thiazol-2-yl)phenol], the melting point lay within 175 to 176.5 °C. The “intracellular ROS scavenging” value in series [3] is on record as “scavenged intracellular ROS to a similar extent to trolox”. The IC50 on mushroom tyrosinase was > 300 µM.
Regarding `Cc1cc(-c2nc3cc(C(F)(F)F)ccc3s2)cc(C)c1O` [Compound 1m, 2,6-Dimethyl-4-(5-(trifluoromethyl)benzo[d]thiazol-2-yl)phenol], the “DPPH radical scavenging activity” value in series [2] was “moderate DPPH radical scavenging efficacy”. The same compound gave an IC50 at mushroom tyrosinase of 129 ± 19.8 µM.
As for `Oc1ccc(-c2nc3cc(C(F)(F)F)ccc3s2)cc1O` [Compound 1c, 4-(5-(Trifluoromethyl)benzo[d]thiazol-2-yl)benzene-1,2-diol], the melting point fell in the range of 267.3 to 269.4 °C. Also, in series [1], the “ABTS radical scavenging activity (in words)” value is “potently scavenged the ABTS radical” and the “ABTS free radical scavenged (%)” value is reported as 92.4%. Besides, the “DPPH radical scavenging activity” value in series [2] is given as “greatest DPPH radical scavenging activity (comparable to L-ascorbic acid)”. The “intracellular ROS scavenging” value in series [3] was “scavenged intracellular ROS far more potently than trolox”. For the same compound, on mushroom tyrosinase, the IC50 is > 300 µM.
In the case of `Oc1c(Br)cc(-c2nc3cc(C(F)(F)F)ccc3s2)cc1Br` [Compound 1o, 2,6-Dibromo-4-(5-(trifluoromethyl)benzo[d]thiazol-2-yl)phenol], the IC50 against mushroom tyrosinase is > 300 µM.
The compound `COc1cc(-c2nc3cc(C(F)(F)F)ccc3s2)cc(OC)c1O` [Compound 1l, 2,6-Dimethoxy-4-(5-(trifluoromethyl)benzo[d]thiazol-2-yl)phenol] returned a melting point of 220.6 to 222.6 °C. The “DPPH radical scavenging activity” value in series [2] was “moderate DPPH radical scavenging efficacy”. Also, the IC50 at mushroom tyrosinase is > 300 µM.
